Measured values as given in US11147812B2, “Tyrosine analogues derivatives as Rho-kinase inhibitors” (Chiesi Farmaceutici S.p.A., priority 2017, dated 2021).

Columns and labels:
Rho kinase 1 (ROCK1) = Rho kinase 1 (ROCK1) (Homo sapiens, UniProt Q13464); experiment: In vitro Rho kinase inhibitory activity assay (ADP-Glo), ROCK1; format: biochemical; conditions: 10 μM ATP, 25° C., Ki by Cheng-Prusoff
Method: (§1) The effectiveness of compounds of the present invention to inhibit Rho kinase activity can be determined in a 10 μl assay containing 40 mM Tris pH7.5, 20 mM MgCl2 0.1 mg/ml BSA, 50 μM DTT and 2.5 μM peptide substrate (Myelin Basic Protein) using an ADP-Glo kit (Promega). Compounds were dissolved in DMSO such that the final concentration of DMSO was 1% in the assay. All reactions/incubations are performed at 25° C. Compound (2 ul) and either Rho kinase 1 or 2 (4 μl) were mixed and incubated for 30 mins. Reactions were initiated by addition of ATP (4 μl) such that the final concentration of ATP in the assay was 10 μM. After a 1 hour incubation 10 μl of ADP-Glo Reagent was added and after a further 45 minute incubation 20 ul of Kinase Detection Buffer was added and the mixture incubated for a further 30 minutes. The luminescent signal was measured on a luminometer. […] Compounds were tested in dose-response format and the inhibition of kinase activity was calculated at each concentration of compound. To determine the IC50 (concentration of compound required to inhibit 50% of the enzyme activity) data were fit to a plot of % inhibition vs Log10 compound concentration using a sigmoidal fit with a variable slope and fixing the maximum to 100% and the minimum to 0%. To determine the Ki values the Cheng-Prusoff equation was utilized (Ki=IC50/(1+[S]/Km)

Rho kinase 2 (ROCK2) = Rho kinase 2 (ROCK2) (Homo sapiens, UniProt O75116); experiment: In vitro Rho kinase inhibitory activity assay (ADP-Glo), ROCK2; format: biochemical; conditions: 10 μM ATP, 25° C., Ki by Cheng-Prusoff
Rho kinase 2 (ROCK2), sequence (O75116 whole entry): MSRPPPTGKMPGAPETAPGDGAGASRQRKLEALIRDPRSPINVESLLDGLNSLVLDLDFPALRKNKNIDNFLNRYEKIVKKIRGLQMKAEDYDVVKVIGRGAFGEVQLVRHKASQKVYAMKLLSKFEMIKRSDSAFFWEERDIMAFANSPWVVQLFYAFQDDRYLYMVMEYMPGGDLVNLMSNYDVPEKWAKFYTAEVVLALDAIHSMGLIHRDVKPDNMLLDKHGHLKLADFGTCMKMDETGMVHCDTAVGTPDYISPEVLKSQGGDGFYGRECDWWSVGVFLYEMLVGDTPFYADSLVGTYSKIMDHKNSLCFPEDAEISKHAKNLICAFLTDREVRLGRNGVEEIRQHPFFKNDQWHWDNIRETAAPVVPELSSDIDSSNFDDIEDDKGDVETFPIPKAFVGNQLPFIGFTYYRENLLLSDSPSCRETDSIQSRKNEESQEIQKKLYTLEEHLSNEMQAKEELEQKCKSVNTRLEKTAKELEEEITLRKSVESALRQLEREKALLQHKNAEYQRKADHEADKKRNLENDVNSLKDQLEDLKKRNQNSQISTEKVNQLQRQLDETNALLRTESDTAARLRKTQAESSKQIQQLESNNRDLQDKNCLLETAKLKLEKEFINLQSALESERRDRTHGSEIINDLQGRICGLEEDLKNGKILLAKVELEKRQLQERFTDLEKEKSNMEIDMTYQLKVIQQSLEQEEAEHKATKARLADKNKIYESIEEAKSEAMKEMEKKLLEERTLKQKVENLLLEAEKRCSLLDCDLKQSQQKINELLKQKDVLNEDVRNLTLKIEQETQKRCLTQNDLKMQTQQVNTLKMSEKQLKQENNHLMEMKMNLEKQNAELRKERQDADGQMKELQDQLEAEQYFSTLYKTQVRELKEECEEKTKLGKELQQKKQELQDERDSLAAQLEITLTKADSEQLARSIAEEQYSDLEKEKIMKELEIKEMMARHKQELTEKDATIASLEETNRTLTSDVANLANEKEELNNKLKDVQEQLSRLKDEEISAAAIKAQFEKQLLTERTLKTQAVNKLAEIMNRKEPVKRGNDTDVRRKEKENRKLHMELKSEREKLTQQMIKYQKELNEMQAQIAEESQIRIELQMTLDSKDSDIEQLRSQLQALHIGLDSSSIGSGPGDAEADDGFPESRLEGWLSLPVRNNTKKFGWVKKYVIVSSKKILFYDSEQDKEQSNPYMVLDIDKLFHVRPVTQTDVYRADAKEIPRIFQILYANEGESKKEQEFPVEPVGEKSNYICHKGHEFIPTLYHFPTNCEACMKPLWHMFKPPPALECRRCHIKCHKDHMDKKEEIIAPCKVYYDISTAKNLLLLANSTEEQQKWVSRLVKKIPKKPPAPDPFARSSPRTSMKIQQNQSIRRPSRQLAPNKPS
Method: as §1

Rho kinase 1 (ROCK1), sequence (Q13464 whole entry): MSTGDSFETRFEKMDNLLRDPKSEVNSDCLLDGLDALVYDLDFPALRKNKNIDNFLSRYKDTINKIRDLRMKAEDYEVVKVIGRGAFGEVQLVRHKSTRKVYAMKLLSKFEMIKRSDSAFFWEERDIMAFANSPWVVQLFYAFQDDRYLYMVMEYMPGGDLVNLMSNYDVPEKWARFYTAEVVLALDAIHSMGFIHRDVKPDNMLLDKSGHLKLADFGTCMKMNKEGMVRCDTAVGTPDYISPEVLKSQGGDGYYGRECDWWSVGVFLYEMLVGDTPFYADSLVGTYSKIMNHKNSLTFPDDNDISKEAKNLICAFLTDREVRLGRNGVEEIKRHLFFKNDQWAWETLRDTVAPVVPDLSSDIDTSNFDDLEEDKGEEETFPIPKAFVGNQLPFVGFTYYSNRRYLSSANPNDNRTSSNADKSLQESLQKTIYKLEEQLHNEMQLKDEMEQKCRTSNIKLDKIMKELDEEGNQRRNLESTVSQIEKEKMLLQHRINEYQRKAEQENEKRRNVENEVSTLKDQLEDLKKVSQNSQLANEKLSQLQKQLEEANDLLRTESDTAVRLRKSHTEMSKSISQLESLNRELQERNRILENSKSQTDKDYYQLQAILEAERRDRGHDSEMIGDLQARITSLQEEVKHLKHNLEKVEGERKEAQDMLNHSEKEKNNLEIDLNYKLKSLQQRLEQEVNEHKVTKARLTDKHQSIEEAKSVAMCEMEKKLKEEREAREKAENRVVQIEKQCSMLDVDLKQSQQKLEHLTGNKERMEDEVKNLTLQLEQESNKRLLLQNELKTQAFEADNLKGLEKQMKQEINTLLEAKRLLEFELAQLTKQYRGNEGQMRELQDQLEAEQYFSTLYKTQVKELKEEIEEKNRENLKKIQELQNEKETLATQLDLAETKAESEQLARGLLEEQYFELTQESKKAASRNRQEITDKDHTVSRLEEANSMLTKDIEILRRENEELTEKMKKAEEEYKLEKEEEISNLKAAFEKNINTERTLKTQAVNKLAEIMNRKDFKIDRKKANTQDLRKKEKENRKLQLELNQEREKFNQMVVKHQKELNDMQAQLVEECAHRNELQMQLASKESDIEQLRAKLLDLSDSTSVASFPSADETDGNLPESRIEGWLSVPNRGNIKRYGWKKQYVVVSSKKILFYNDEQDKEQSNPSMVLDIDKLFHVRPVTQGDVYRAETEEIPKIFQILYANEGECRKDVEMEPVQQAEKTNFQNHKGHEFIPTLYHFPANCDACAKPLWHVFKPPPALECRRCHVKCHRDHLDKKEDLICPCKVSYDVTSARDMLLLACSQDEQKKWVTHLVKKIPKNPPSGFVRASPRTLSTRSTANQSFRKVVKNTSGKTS

SMILES	Ki (Rho kinase 1 (ROCK1)) [nM]	Ki (Rho kinase 2 (ROCK2)) [nM]
Cc1c[nH]c2nccc(Oc3ccc([C@H]4CNC[C@@H]4C(=O)NCc4ccccc4)cc3)c12 (racemic) [Example 17, rac-(3R,4S)-N-benzyl-4-(4-((3-methyl-1H-pyrrolo[2,3-b]pyridin-4-yl)oxy)phenyl)pyrrolidine-3-carboxamide]	< 3	< 3
Cc1c[nH]c2nccc(Oc3ccc([C@H]4CNC[C@@H]4C(=O)N(C)Cc4ccccc4)cc3)c12 (racemic) [Example 18, rac-(3R,4S)-N-benzyl-N-methyl-4-(4-((3-methyl-1H-pyrrolo[2,3-b]pyridin-4-yl)oxy)phenyl)pyrrolidine-3-carboxamide]	3 to 30	< 3
Cc1c[nH]c2nccc(Oc3ccc([C@H]4CCN[C@@H]4C(=O)NCc4ccccc4)cc3)c12 (racemic) [Example 19, rac-(2S,3R)-N-benzyl-3-(4-((3-methyl-1H-pyrrolo[2,3-b]pyridin-4-yl)oxy)phenyl)pyrrolidine-2-carboxamide]	< 3	< 3
Cc1c[nH]c2nccc(Oc3ccc([C@H]4CCN[C@@H]4C(=O)NCCc4ccncc4)cc3)c12 (racemic) [Example 20, rac-(2S,3R)-3-(4-((3-methyl-1H-pyrrolo[2,3-b]pyridin-4-yl)oxy)phenyl)-N-(2-(pyridin-4-yl)ethyl)pyrrolidine-2-carboxamide]	< 3	< 3
COCCCNC(=O)[C@H]1NCC[C@@H]1c1ccc(Oc2ccnc3[nH]cc(C)c23)cc1 (racemic) [Example 21, rac-(2S,3R)-N-(3-methoxypropyl)-3-(4-((3-methyl-1H-pyrrolo[2,3-b]pyridin-4-yl)oxy)phenyl)pyrrolidine-2-carboxamide]	3 to 30	< 3
Cc1c[nH]c2nccc(Oc3ccc([C@H]4CCN[C@@H]4C(=O)NCCc4ccccc4)cc3)c12 (racemic) [Example 22, rac-(2S,3R)-3-(4-((3-methyl-1H-pyrrolo[2,3-b]pyridin-4-yl)oxy)phenyl)-N-phenethylpyrrolidine-2-carboxamide]	< 3	< 3
Cc1c[nH]c2nccc(Oc3ccc([C@H]4CCN[C@@H]4C(=O)NCCOc4ccccc4)cc3)c12 (racemic) [Example 23, rac-(2S,3R)-3-(4-((3-methyl-1H-pyrrolo[2,3-b]pyridin-4-yl)oxy)phenyl)-N-(2-phenoxyethyl)pyrrolidine-2-carboxamide]	< 3	< 3
Cc1c[nH]c2nccc(Oc3ccc([C@H]4CCN[C@@H]4C(=O)NC4CCOCC4)cc3)c12 (racemic) [Example 24, rac-(2S,3R)-3-(4-((3-methyl-1H-pyrrolo[2,3-b]pyridin-4-yl)oxy)phenyl)-N-(tetrahydro-2H-pyran-4-yl)pyrrolidine-2-carboxamide]	3 to 30	3 to 30
Cc1c[nH]c2nccc(Oc3ccc([C@H]4CCN[C@@H]4C(=O)NC4CCN(C)CC4)cc3)c12 (racemic) [Example 25, rac-(2S,3R)-3-(4-((3-methyl-1H-pyrrolo[2,3-b]pyridin-4-yl)oxy)phenyl)-N-(1-methylpiperidin-4-yl)pyrrolidine-2-carboxamide]	3 to 30	3 to 30
Cc1c[nH]c2nccc(Oc3ccc([C@H]4CCN[C@@H]4C(=O)NCCCN(C)C)cc3)c12 (racemic) [Example 26, rac-(2R,3S)-N-(3-(dimethylamino)propyl)-3-(4-((3-methyl-1H-pyrrolo[2,3-b]pyridin-4-yl)oxy)phenyl)pyrrolidine-2-carboxamide]	3 to 30	3 to 30
Cc1c[nH]c2nccc(Oc3ccc([C@@H]4CCN[C@H]4C(=O)N4CCNCC4)cc3)c12 (racemic) [Example 27, rac-((2S,3R)-3-(4-((3-methyl-1H-pyrrolo[2,3-b]pyridin-4-yl)oxy)phenyl)pyrrolidin-2-yl)(piperazin-1-yl)methanone]	3 to 30	3 to 30
